Some test systems named below: HCT-15; SF-539; HOP-62; 786-0; UO-31; MOLT-4; SK-MEL-28; U-251; DU-145; MCF7; SK-MEL-5; M14; Hs-578T; KM12; NCI/ADR-RES; CCRF-CEM; UACC-62; NCI-H460; RXF 393; SR.
Test in all cases: growth of human tumour cells (NCI), 48 h

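Compound exposure: 48 hours, 5 concentrations, 96-well plates. GI50 marks 50% less growth.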 The source made the active and inactive calls. No stated cut-off is given here; in the data, active = GI50 up to about 1.1 µM and inactive = higher.

The results in this text go back to ChEMBL document CHEMBL1201862, “PubChem BioAssay data set” (2004).

In the case of `COC(=O)c1ccc(C)cc1CC1Cc2cccc(C)c2C1=O` (stereo unspecified), the GI50 with HCT-15 was 3.1 µM; in the test on SF-539 it was 4.02 µM (inactive); in the test with HOP-62, 17.9 µM (inactive); with 786-0 it was 14.6 µM (inactive); with UO-31, 13.4 µM (inactive); with MOLT-4 it was 4.11 µM (inactive). In addition, the GI50 was 7.41 µM (inactive) in the test on SK-MEL-28; 3.87 µM (inactive) with U-251; 11.9 µM (inactive) in the test with DU-145; 2.38 µM (inactive) in the test on MCF7; 3.59 µM (inactive) in the test with SK-MEL-5; 3.93 µM (inactive) in the test with M14. Besides, the GI50 in the test on Hs-578T was 9.77 µM (inactive); in the test with KM12 it was 4.08 µM (inactive); in the test on NCI/ADR-RES, 5.16 µM (inactive); with CCRF-CEM it was 4.73 µM (inactive); in the test with UACC-62, 9.57 µM (inactive); with NCI-H460, 4.89 µM (inactive). In addition, the GI50 in the test on RXF 393 is 7.87 µM (inactive).
For the compound `CO[C@]12CC(=O)C3(C(C[C@H]4CC5CC[C@H]6C[C@@H](OC(C)=O)CC[C@]6(OC(C)=O)C5C[C@@]43C)C1)C1C[C@H]3[C@@H]4CC[C@H]5C[C@@H](OC(C)=O)CC[C@]5(OC(C)=O)[C@H]4CC[C@]3(C)C12` (stereo partly specified), the GI50 was 90.2 µM in the test with HCT-15; > 100 µM (inactive) with SF-539; > 100 µM (inactive) in the test with HOP-62; 64.4 µM (inactive) in the test with 786-0; > 100 µM (inactive) in the test with UO-31; 51.1 µM (inactive) with MOLT-4. In addition, the GI50 is > 100 µM (inactive) with SK-MEL-28; 75.5 µM (inactive) with U-251; 70.3 µM (inactive) with DU-145; 80.5 µM (inactive) with MCF7; 24.4 µM (inactive) with SK-MEL-5; > 100 µM (inactive) in the test with M14. In addition, the GI50 is 71.4 µM (inactive) with Hs-578T; 46.8 µM (inactive) in the test with KM12; > 100 µM (inactive) in the test on SR; 43.6 µM (inactive) in the test on NCI/ADR-RES; 24.5 µM (inactive) in the test on CCRF-CEM; 84.3 µM (inactive) with UACC-62. The GI50 in the test on NCI-H460 was 66.5 µM (inactive).
Consider `CC1(C)N=[N+]([O-])C1(C)C`, for which the GI50 is greater than 100 µM in the test on HCT-15; > 100 µM (inactive) in the test on SF-539; > 100 µM (inactive) in the test on 786-0; > 100 µM (inactive) in the test on UO-31; > 100 µM (inactive) with MOLT-4; > 100 µM (inactive) in the test with SK-MEL-28. The GI50 in the test on U-251, with DU-145, with MCF7, in the test with SK-MEL-5, in the test with M14 and in the test with Hs-578T was > 100 µM (inactive) throughout. For the same compound, the GI50 in the test on KM12, with SR, in the test on NCI/ADR-RES, in the test on CCRF-CEM, with UACC-62 and in the test with NCI-H460 was > 100 µM (inactive) throughout. Besides, the GI50 in the test with RXF 393 was > 100 µM (inactive).
Consider `CC(C)(C)OC(=O)n1c(-c2ccccc2F)cc(=O)c2cc3c(cc21)OCO3`, for which the GI50 in the test on HCT-15 is 0.0505 µM; with SF-539, 0.0736 µM (active); with HOP-62, 0.0863 µM (active); with 786-0, 0.0541 µM (active); with UO-31 it was 0.188 µM (active); with MOLT-4, 0.106 µM (active). Further, the GI50 with SK-MEL-28 was > 100 µM (inactive); in the test on U-251, 0.0476 µM (active); in the test with DU-145, 0.0451 µM (active); in the test on MCF7, 0.0413 µM (active); in the test on SK-MEL-5 it was 0.0521 µM (active); with M14, 1.4 µM (inactive). The GI50 is 0.0407 µM (active) in the test with Hs-578T; 0.028 µM (active) in the test with KM12; 0.0327 µM (active) in the test on SR; 0.0231 µM (active) in the test on NCI/ADR-RES; 0.0638 µM (active) with CCRF-CEM; 0.0588 µM (active) in the test with UACC-62. Further, the GI50 with NCI-H460 was 0.0656 µM (active).
`Cc1ccc(-c2nnc(CCCCCCCCc3nnc(-c4ccc(C)cc4O)n3N)n2N)c(O)c1`: the GI50 with HCT-15 was greater than 100 µM; with SF-539, > 100 µM (inactive); with 786-0 it was 85.1 µM (inactive); in the test with UO-31 it was > 100 µM (inactive); in the test on MOLT-4, 33 µM (inactive); in the test on SK-MEL-28, > 100 µM (inactive). Further, the GI50 was > 100 µM (inactive) in the test with U-251; > 100 µM (inactive) in the test with DU-145; > 100 µM (inactive) in the test with MCF7; > 100 µM (inactive) in the test with M14; 44.9 µM (inactive) with Hs-578T; > 100 µM (inactive) with KM12. In addition, the GI50 is > 100 µM (inactive) in the test on SR; > 100 µM (inactive) with NCI/ADR-RES; > 10 µM (inactive) in the test with CCRF-CEM; > 100 µM (inactive) in the test on UACC-62; > 100 µM (inactive) with NCI-H460.
For the compound `CC(C)(C)c1cc(-c2ccc(-c3cc(C(C)(C)C)c(O)c(C(C)(C)C)c3)cc2)cc(C(C)(C)C)c1O`, the GI50 was greater than 100 µM with HCT-15; > 100 µM (inactive) in the test with SF-539; > 100 µM (inactive) in the test on HOP-62; > 100 µM (inactive) with 786-0; > 100 µM (inactive) in the test on UO-31; > 100 µM (inactive) in the test with MOLT-4. Besides, the GI50 with SK-MEL-28, with U-251, with DU-145, in the test on MCF7, in the test with SK-MEL-5 and in the test on M14 was > 100 µM (inactive) throughout. Besides, the GI50 in the test with Hs-578T is > 10 µM (inactive); in the test on KM12, > 100 µM (inactive); in the test with SR, > 100 µM (inactive); in the test on NCI/ADR-RES, > 100 µM (inactive); with UACC-62 it was > 100 µM (inactive); in the test on RXF 393, > 100 µM (inactive).
For `Cc1ccc(NC(=S)NNC(=O)c2cc(-c3ccccc3)nc3ccccc23)cc1`, the GI50 with HCT-15 is 7.13 µM; with SF-539, 15.7 µM (inactive); in the test on HOP-62, 13.2 µM (inactive); in the test on 786-0 it was 13 µM (inactive); in the test on UO-31, 12.7 µM (inactive); in the test on MOLT-4, 14.3 µM (inactive). The GI50 is 5.96 µM (inactive) with SK-MEL-28; 5.68 µM (inactive) in the test with U-251; 12.9 µM (inactive) with DU-145; 11.2 µM (inactive) in the test on MCF7; 10.4 µM (inactive) in the test on SK-MEL-5; 11.9 µM (inactive) in the test with M14. The GI50 in the test on Hs-578T was 17.4 µM (inactive); in the test on KM12 it was 11.1 µM (inactive); in the test with SR, 3.18 µM (inactive); in the test on NCI/ADR-RES it was 14 µM (inactive); in the test on UACC-62 it was 12.5 µM (inactive); in the test with NCI-H460 it was 18.7 µM (inactive). Also, the GI50 in the test with RXF 393 is 12.8 µM (inactive).
For the compound `CCOC(=O)NC(Nc1ccc(S(=O)(=O)Nc2ncccn2)cc1)(C(=O)OCC)C(F)(F)F` (stereo unspecified), the GI50 with HCT-15 was greater than 100 µM; with SF-539, > 100 µM (inactive); in the test on HOP-62, > 100 µM (inactive); in the test on 786-0 it was > 100 µM (inactive); in the test on UO-31, > 100 µM (inactive); with MOLT-4, > 100 µM (inactive). Further, the GI50 is > 100 µM (inactive) in the test with SK-MEL-28; > 100 µM (inactive) with U-251; > 100 µM (inactive) in the test on DU-145; 0.279 µM (active) with MCF7; > 100 µM (inactive) in the test with SK-MEL-5; > 100 µM (inactive) in the test with M14. The GI50 in the test with Hs-578T, in the test on KM12, with SR, with NCI/ADR-RES, with CCRF-CEM and in the test with UACC-62 was > 100 µM (inactive) each time. For the same compound, in the test with NCI-H460, the GI50 was > 100 µM (inactive).
As to `NCS(=O)(=O)O`, the GI50 in the test with HCT-15 was greater than 100 µM; with SF-539 it was 0.0361 µM (active); in the test with HOP-62, > 100 µM (inactive); with 786-0, > 100 µM (inactive); in the test on UO-31, > 100 µM (inactive); in the test with MOLT-4, > 100 µM (inactive). The GI50 in the test on SK-MEL-28, with U-251, in the test on DU-145, in the test on MCF7, in the test on SK-MEL-5 and in the test with M14 was > 100 µM (inactive) each time. Further, the GI50 is > 100 µM (inactive) in the test on Hs-578T; > 100 µM (inactive) in the test on KM12; > 100 µM (inactive) in the test with NCI/ADR-RES; > 100 µM (inactive) in the test on CCRF-CEM; > 100 µM (inactive) with UACC-62; 35.2 µM (inactive) with NCI-H460. The GI50 with RXF 393 is > 100 µM (inactive).
For the compound `COC(=O)CCC(C)C1CCC2C3C(C[C@H](OC(C)=O)[C@]12C)[C@@]1(C)CCC2(C[C@H]1C[C@H]3OC(C)=O)OOC1(CC[C@]3(C)C4C[C@H](OC(C)=O)[C@]5(C)C(C(C)CCC(=O)OC)CCC5C4[C@H](OC(C)=O)C[C@@H]3C1)OO2` (stereo partly specified), the GI50 in the test with HCT-15 was greater than 100 µM; in the test with HOP-62, > 100 µM (inactive); with 786-0 it was > 100 µM (inactive); in the test on UO-31, 30.9 µM (inactive); in the test with MOLT-4, 48.4 µM (inactive); in the test with SK-MEL-28 it was > 100 µM (inactive). The GI50 in the test on U-251 is 45.1 µM (inactive); in the test with DU-145, 73.1 µM (inactive); with MCF7, > 100 µM (inactive); in the test on SK-MEL-5, > 100 µM (inactive); in the test on M14 it was > 100 µM (inactive); with Hs-578T, > 100 µM (inactive). The GI50 with KM12 was > 100 µM (inactive); in the test with SR, 44.3 µM (inactive); in the test with NCI/ADR-RES it was > 100 µM (inactive); in the test with CCRF-CEM, 14.8 µM (inactive); in the test with NCI-H460 it was 50.7 µM (inactive); in the test with RXF 393 it was > 100 µM (inactive).
